We go through 18 compounds from patent US20240199587A1, “HETEROCYCLIC COMPOUNDS” (Hoffmann-La Roche Inc., priority 2021, published 2024).

Broadly, the IC50 is the concentration at which inhibition is half-maximal. High values mean weaker potency in that assay, low ones greater potency in that assay.

The assay has as its target T1, MAGL (Homo sapiens, UniProt Q99685).
T1 sequence (Q99685 1-303): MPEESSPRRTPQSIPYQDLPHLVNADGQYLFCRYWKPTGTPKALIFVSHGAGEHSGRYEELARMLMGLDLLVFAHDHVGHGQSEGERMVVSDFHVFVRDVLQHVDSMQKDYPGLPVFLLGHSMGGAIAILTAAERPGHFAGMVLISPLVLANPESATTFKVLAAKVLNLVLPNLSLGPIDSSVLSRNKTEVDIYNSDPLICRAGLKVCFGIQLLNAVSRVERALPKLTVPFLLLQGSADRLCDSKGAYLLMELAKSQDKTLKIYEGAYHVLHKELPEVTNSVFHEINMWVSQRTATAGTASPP
Put plainly: 2-AG assay (MAGL inhibitory activity, hydrolysis of 2-arachidonoylglycerol to arachidonic acid followed by mass spectrometry). The format is biochemical. As to conditions: 8 μM 2-arachidonoylglycerol, 15 min pre-incubation, 30 min incubation at RT, RapidFire MS readout. The method, boiled down:
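Human MAGL ([…] final) pre-incubated 15 min at RT with compound in 50 mM TRIS, 1 mM EDTA, 0.01% Tween-20, 2.5% DMSO; 8 μM 2-AG then added for 30 min at RT. Acetonitrile quench with d8-arachidonic acid; arachidonic acid measured by RapidFire SPE–MS/MS, activity from arachidonic acid/d8 ratio.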
Consider `O=C(N1CC(C23CC(NCC4(C(F)(F)F)CC4)(C2)C3)C1)N1CC2(CC(n3cnc(C4(O)CC4)n3)C2)C1` [Example 395, [6-[3-(1-hydroxycyclopropyl)-1,2,4-triazol-1-yl]-2-azaspiro[3.3]heptan-2-yl]-[3-[3-[[1-(trifluoromethyl)cyclopropyl]methylamino]-1-bicyclo[1.1.1]pentanyl]azetidin-1-yl]methanone], for which the IC50 turned out to be 14.7 nM.

For `CS(=O)(=O)c1cc(Cl)ccc1-c1ccc(C2CN(C(=O)N3CC4(CC(n5cnc(C6(O)CC6)n5)C4)C3)C2)cc1` [Example 396, [3-[4-(4-chloro-2-methylsulfonyl-phenyl)phenyl]azetidin-1-yl]-[6-[3-(1-hydroxycyclopropyl)-1,2,4-triazol-1-yl]-2-azaspiro[3.3]heptan-2-yl]methanone], inhibition was half-maximal at 0.26 nM (IC50).

Compound `O=C(N1CC(c2ccc(N3CC[C@H](C(F)(F)F)C3)nc2)C1)N1CC2(CC(n3cnc(C4(O)CC4)n3)C2)C1` [Example 397, [6-[3-(1-hydroxycyclopropyl)-1,2,4-triazol-1-yl]-2-azaspiro[3.3]heptan-2-yl]-[3-[6-[(3S)-3-(trifluoromethyl)pyrrolidin-1-yl]-3-pyridyl]azetidin-1-yl]methanone] had an IC50 of 14.4 nM.

For `O=C(N1CC(OCc2ccc(S(=O)(=O)C(F)(F)F)cc2F)C1)N1CC2(CC(n3cnc(C4(O)CC4)n3)C2)C1` [Example 398, [3-[[2-fluoro-4-(trifluoromethylsulfonyl)phenyl]methoxy]azetidin-1-yl]-[6-[3-(1-hydroxycyclopropyl)-1,2,4-triazol-1-yl]-2-azaspiro[3.3]heptan-2-yl]methanone], the IC50 amounted to 34.8 nM.

As to `O=C(N1CC(OCc2ccc(S(=O)(=O)C(F)(F)F)cc2)C1)N1CC2(CC(n3cnc(C4(O)CC4)n3)C2)C1` [Example 399, [6-[3-(1-hydroxycyclopropyl)-1,2,4-triazol-1-yl]-2-azaspiro[3.3]heptan-2-yl]-[3-[[4-(trifluoromethylsulfonyl)phenyl]methoxy]azetidin-1-yl]methanone], half-maximal inhibition (IC50) was put at 102 nM.

In turn, `O=C(N1CC2(CC(Cc3ncc(F)cc3F)C2)C1)N1CC2(CC(n3cnc(C4(O)CC4)n3)C2)C1` [Example 402, [6-[(3,5-difluoro-2-pyridyl)methyl]-2-azaspiro[3.3]heptan-2-yl]-[6-[3-(1-hydroxycyclopropyl)-1,2,4-triazol-1-yl]-2-azaspiro[3.3]heptan-2-yl]methanone] had an IC50 of 3.91 nM.

In turn, `CS(=O)(=O)c1ccc(CC2CC3(C2)CN(C(=O)N2CC4(CC(n5cnc(C6(O)CC6)n5)C4)C2)C3)c(F)c1` [Example 403, [6-[(2-fluoro-4-methylsulfonyl-phenyl)methyl]-2-azaspiro[3.3]heptan-2-yl]-[6-[3-(1-hydroxycyclopropyl)-1,2,4-triazol-1-yl]-2-azaspiro[3.3]heptan-2-yl]methanone] had an IC50 of 1.25 nM.

In turn, `O=C(N1CC2(CC(Cc3ccc(Cl)cn3)C2)C1)N1CC2(CC(n3cnc(C4(O)CC4)n3)C2)C1` [Example 404, [6-[(5-chloro-2-pyridyl)methyl]-2-azaspiro[3.3]heptan-2-yl]-[6-[3-(1-hydroxycyclopropyl)-1,2,4-triazol-1-yl]-2-azaspiro[3.3]heptan-2-yl]methanone] returned an IC50 of 2.33 nM.

As to `CS(=N)(=O)c1ccc(CC2CC3(C2)CN(C(=O)N2CC4(CC(n5cnc(C6(O)CC6)n5)C4)C2)C3)cc1` (stereo not drawn) [Example 405, [6-[3-(1-hydroxycyclopropyl)-1,2,4-triazol-1-yl]-2-azaspiro[3.3]heptan-2-yl]-[6-[[4-(methylsulfonimidoyl)phenyl]methyl]-2-azaspiro[3.3]heptan-2-yl]methanone], the IC50 is 169 nM.

In the case of `O=C(N1CC2(CC(Cc3ccc(C(F)(F)F)cn3)C2)C1)N1CC2(CC(n3cnc(C4(O)CC4)n3)C2)C1` [Example 408, [6-[3-(1-hydroxycyclopropyl)-1,2,4-triazol-1-yl]-2-azaspiro[3.3]heptan-2-yl]-[6-[[5-(trifluoromethyl)-2-pyridyl]methyl]-2-azaspiro[3.3]heptan-2-yl]methanone], the midpoint of inhibition, the IC50, lay at 0.31 nM.

Turning to `O=C(N1CC2(CC(Cc3ccc(C(F)(F)F)nn3)C2)C1)N1CC2(CC(n3cnc(C4(O)CC4)n3)C2)C1` [Example 409, [6-[3-(1-hydroxycyclopropyl)-1,2,4-triazol-1-yl]-2-azaspiro[3.3]heptan-2-yl]-[6-[[6-(trifluoromethyl)pyridazin-3-yl]methyl]-2-azaspiro[3.3]heptan-2-yl]methanone], the IC50 is 27.5 nM.

Compound `O=C(N1CC2(CC(Cc3cnc(C(F)(F)F)nc3)C2)C1)N1CC2(CC(n3cnc(C4(O)CC4)n3)C2)C1` [Example 410, [6-[3-(1-hydroxycyclopropyl)-1,2,4-triazol-1-yl]-2-azaspiro[3.3]heptan-2-yl]-[6-[[2-(trifluoromethyl)pyrimidin-5-yl]methyl]-2-azaspiro[3.3]heptan-2-yl]methanone] showed an IC50 of 24.9 nM.

The compound `CS(=O)(=O)c1cc(F)cc(CC2CC3(C2)CN(C(=O)N2CC4(CC(n5cnc(C6(O)CC6)n5)C4)C2)C3)c1` [Example 411, [6-[(3-fluoro-5-methylsulfonyl-phenyl)methyl]-2-azaspiro[3.3]heptan-2-yl]-[6-[3-(1-hydroxycyclopropyl)-1,2,4-triazol-1-yl]-2-azaspiro[3.3]heptan-2-yl]methanone] showed a 50% inhibitory concentration (IC50) of 16.3 nM.

`O=C(N1CC2(CC(n3cnc(C4(O)CC4)n3)C2)C1)N1CC2(CN(Cc3ccc(S(=O)(=O)C(F)(F)F)cc3)C2)C1` [Example 412, [6-[3-(1-hydroxycyclopropyl)-1,2,4-triazol-1-yl]-2-azaspiro[3.3]heptan-2-yl]-[6-[[4-(trifluoromethylsulfonyl)phenyl]methyl]-2,6-diazaspiro[3.3]heptan-2-yl]methanone] came in with an IC50 of 7.96 nM.

`CS(=O)(=O)c1cc(Cl)ccc1-c1ccc(C2CN(C(=O)N3CC4(CC(n5cncn5)C4)C3)C2)cc1` [Example 413, [3-[4-(4-chloro-2-methylsulfonyl-phenyl)phenyl]azetidin-1-yl]-[6-(1,2,4-triazol-1-yl)-2-azaspiro[3.3]heptan-2-yl]methanone]: 47.8 nM corresponded to half-maximal inhibition (IC50).

As for `CP(C)(=O)c1ccc(COC2CN(C(=O)N3CC4(CC(n5cnc(C(F)(F)F)n5)C4)C3)C2)cc1` [Example 414, [3-[(4-dimethyl-phosphorylphenyl)methoxy]azetidin-1-yl]-[6-[3-(trifluoromethyl)-1,2,4-triazol-1-yl]-2-azaspiro[3.3]heptan-2-yl]methanone], the midpoint of inhibition, the IC50, lay at 2960 nM.

As to `CP(C)(=O)c1ccc(COC2CN(C(=O)N3CC4(CC(n5cnc(C6CC6)n5)C4)C3)C2)cc1` [Example 415, [6-(3-cyclopropyl-1,2,4-triazol-1-yl)-2-azaspiro[3.3]heptan-2-yl]-[3-[(4-dimethylphosphorylphenyl)methoxy]azetidin-1-yl]methanone], inhibition was half-maximal at 1060 nM (IC50).

For `CS(=N)(=O)c1cc(F)ccc1CC1CC2(C1)CN(C(=O)N1CC3(CC(n4cnc(C5CC5)n4)C3)C1)C2` (stereo not drawn) [Example 416, [6-(3-cyclopropyl-1,2,4-triazol-1-yl)-2-azaspiro[3.3]heptan-2-yl]-[6-[[4-fluoro-2-(methylsulfonimidoyl)phenyl]methyl]-2-azaspiro[3.3]heptan-2-yl]methanone], the IC50 came out at 1.12 nM.
